Here are results for 8 compounds from patent US5959123A, “3,4-Disubstituted azetidin-2-one derivatives useful as cysteine proteinase regulators” (Synphar Laboratories, Inc., priority 1997, dated 1999).

The target of one assay is cathepsin B (Rattus norvegicus, UniProt P00787). Put plainly: In vitro assay for cathepsin B inhibition. The note with it: r rat cathepsin B; pH 5.1; 10 min incubation at room temperature; substrate N-CBZ-Phe-Arg-AMC (5 mM, 20 μl). Type of assay: biochemical. As for the experimental part: The compounds of formula I were tested for inhibition of cathepsin B using the known method (A. J. Barret et al., Biochem. J. 1982, 201, 189-198). To a 170 μl of enzyme-buffer mixture (enzyme: r rat cathepsin B, diluted to give approximate 10 F units/min, buffer: 56 mM sodium acetate, 1.124 mM EDTA, 10 mM DTT, pH 5.1) a 10 μL of inhibitor (dissolved in DMSO) was added. After 10 min of incubation at room temperature, a 20 μl of 5 mM substrate (N-CBZ-Phe-Arg-AMC, dissolved in DMSO) was added to initiate reaction. Reading is followed up for 10 min at the fluoroscan reader (excitation at 380 nm emission at 460 nm).
Chain of cathepsin B (P00787 80-333 limits assumed): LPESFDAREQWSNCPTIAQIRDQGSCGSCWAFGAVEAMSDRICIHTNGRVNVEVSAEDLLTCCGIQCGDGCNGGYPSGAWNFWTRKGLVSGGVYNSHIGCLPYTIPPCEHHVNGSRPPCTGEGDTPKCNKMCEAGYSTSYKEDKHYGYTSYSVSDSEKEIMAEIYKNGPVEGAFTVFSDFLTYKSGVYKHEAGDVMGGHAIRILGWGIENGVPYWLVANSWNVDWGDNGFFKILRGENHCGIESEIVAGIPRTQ
(§1) A plot of percentage of inhibition vs inhibitor concentration is obtained, and IC50 is determined using a linear regression calculation (concentration of inhibitor which will give 50% inhibition).

Another assay concerns the target cathepsin L (Rattus norvegicus, UniProt P07154). Put plainly: In vitro assay for cathepsin L inhibition. Format: biochemical. To be noted: r rat cathepsin L; pH 5.0; 10 min incubation at room temperature; substrate N-CBZ-Phe-Arg-AMC (1 mM, 20 μl). As for the experimental part: To a 170 μl of enzyme-buffer mixture (enzyme: r rat cathepsin L, diluted to give approximate 15 F units/min, buffer: 58.8 mM sodium citrate, 1.18 mM EDTA, 235 mM sodium chloride, 5 mM DTT, pH 5.0) a 10 μL of inhibitor (dissolved in DMSO) was added. After 10 min of incubation at room temperature, a 20 μl of 1 mM substrate (N-CBZ-Phe-Arg-AMC, dissolved in DMSO) was added to initiate reaction. Reading is followed up for 10 min at the fluoroscan reader (excitation at 380 nm emission at 460 nm).
as §1

pIC50: −log10 of the molar value.

In general, pIC50 refers to the negative decadic logarithm of the IC50, by convention in mol/L. Read a high pIC50 as a low IC50.

Chain of cathepsin L (P07154 114-334): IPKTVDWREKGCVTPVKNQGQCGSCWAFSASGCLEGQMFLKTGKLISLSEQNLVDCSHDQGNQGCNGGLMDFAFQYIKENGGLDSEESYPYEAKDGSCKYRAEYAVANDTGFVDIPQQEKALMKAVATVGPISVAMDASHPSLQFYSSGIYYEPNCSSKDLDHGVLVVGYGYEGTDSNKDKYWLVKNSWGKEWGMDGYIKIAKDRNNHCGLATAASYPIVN

On to `O=C(N[C@@H](Cc1ccc2ccccc2c1)C(=O)N[C@@H]1C(=O)N[C@H]1Oc1cccc(N2CCOCC2)c1)OCc1ccccc1` [Example 14A, (3S,4S)-3-{N-benzyloxycarbonyl-β-(2-naphthyl)-L-alanyl}amino-4-{3-(morpholin-4-yl)-phenoxy}-azetidin-2-one], for which the results for the pIC50 against cathepsin B and against cathepsin L were 5.77 and 8.57, respectively.

Regarding `O=C(CCc1ccccc1)NC(Cc1ccc2ccccc2c1)C(=O)NC1C(=O)NC1S(=O)(=O)c1ccccc1` [Example 16, (3S,4SR)-3-{N-(3-phenylpropionoyl)-β-(2-naphthyl)-L-alanyl}-amino-4-phenylsulfonyl-azetidin-2-one], the figures for the pIC50 at cathepsin B and against cathepsin L were 5.80 and 8.07, respectively.

Turning to `CC(=O)O[C@@H]1NC(=O)[C@H]1NC(=O)C1Cc2ccccc2N1C(=O)OCc1ccccc1` (stereo partly drawn) [Example 1, (3S,4S)-3-(1 -N-benzyloxycarbonyl-2-indolinecarbonyl)-amino-4-acetoxy-azetidin-2-one], the figures for the pIC50 at cathepsin B and against cathepsin L were less than 4.30 and 4.57, respectively.

As to `COc1ccc(C[C@H](NC(=O)OCc2ccccc2)C(=O)N[C@@H]2C(=O)N[C@H]2OC(C)=O)cc1` [Example 10, (3S,4S)-3-{N-benzyloxycarbonyl-β-(4-methoxyphenyl)-L-alanyl}-amino-4-acetoxy-azetidin-2-one], the pIC50 against cathepsin B is 5.12; against cathepsin L, 7.24.

In the case of `Cc1cccc(O[C@H]2NC(=O)[C@H]2NC(=O)[C@H](Cc2ccc3ccccc3c2)NC(=O)OCc2ccccc2)c1` [Example 12B, (3S,4R)-3-{N-benzyloxycarbonyl-β-(2-naphthyl)-L-alanyl}-amino-4-(3-methylphenoxy)-azetidin-2-one], the pIC50 at cathepsin B is 7.10; at cathepsin L it was 9.40.

In the case of `O=C(CCc1ccccc1)NC(Cc1ccc2ccccc2c1)C(=O)NC1C(=O)NC1SCCO` [Example 17, (3S,4SR)-3-{N-(3-phenylpropionoyl)-β-(2-naphthyl)-L-alanyl}-amino-4-(2-hydroxyethylthio)-azetidin-2-one], the values for the pIC50 against cathepsin B and against cathepsin L were 5.00 and 6.40, respectively.

For `CC(=O)O[C@@H]1NC(=O)[C@H]1NC(=O)C(NC(=O)OCc1ccccc1)c1ccccc1` (mixture of isomers) [Example 3, (3S,4S)-3-(N-benzyloxycarbonyl-DL-phenylglycyl)-amino-4-acetoxy-azetidin-2-one], the values for the pIC50 at cathepsin B and on cathepsin L were less than 4.30 and 4.37, respectively.

`O=C(N[C@@H](Cc1ccc2ccccc2c1)C(=O)N[C@@H]1C(=O)N[C@H]1Oc1ccccc1)OCc1ccccc1` [Example 11, (3S,4S)-3-{N-benzyloxycarbonyl-β-(2-naphthyl)-L-alanyl}-amino-4-phenoxy-azetidin-2-one]: the pIC50 against cathepsin B is 6.05; against cathepsin L, 7.82.
